Laboratory results from publication PMC10385664, “Projection of Target Drug Particle Size in Oral Formulations Using the Refined Developability Classification System (rDCS)” (Pharmaceutics, 2023).
≈ marks a conversion by molar mass, not a printed value. Like-named read-outs stand apart in the source and are kept apart here.

Assays:
[1] = rDCS dissolution rate analysis (kdiss vs kperm) by Rosenberger et al.; details: for kdiss: based on IDR, standard particle size 100 µm
Description: Rosenberger et al. published an equation for kdiss based on the intrinsic dissolution rate (IDR) rather than CS (Equation (9)). Applying the hparticle assumption for larger particles with r0 ≥ 30 µm (hparticle = 30 µm) results in Equation (10). (9) kdiss=kIDR·IDR=3·hdisk/r0^2·ρ·IDR(r0<30 µm, hparticle=r0) (10) kdiss=kIDR·IDR=3·hdisk/r0·hparticle·ρ·IDR(r0≥30 µm, hparticle=30 µm)
In these equations kIDR is the IDR rate constant, which accounts for the solvent kinematic viscosity, rotational speed of the compressed disk, diffusion coefficient, particle size and API density. Therefore, kIDR corrects for differences in experimental conditions that influence the measured IDR value. The ABL thickness of the rotating disk (hdisk) can be estimated according to Equation (11):(11) hdisk=4.98·ν^1/6·D^1/3·RPM^−1/2 where ν is the solvent kinematic viscosity and the stirring rate is expressed as revolutions per minute (RPM). When kdiss is based on the IDR, two modified Dn equations result (Equations (12) and (13)):(12) Dn=3·hdisk/r0^2·ρ·IDR·Tsi(r0<30 µm, hparticle=r0) (13) Dn=3·hdisk/r0·hparticle·ρ·IDR·Tsi(r0≥30 µm, hparticle=30 µm)
The rDCS dissolution rate analysis was conducted according to Rosenberger et al.. For this, kdiss based on the IDR for a standard particle size of 100 µm was calculated (Equation (15)) and compared to kperm (Equation (10)). The kinematic viscosity of the medium (0.00696 cm^2/s), aqueous diffusion coefficient (predicted with ADMET Predictor version 9), stirring rate (100 rpm), initial particle size (100 µm), API density (predicted with ACD/Labs Release 2021.1.2), and measured IDR were used to calculate kdiss. Predicted diffusion coefficients and API densities can be found in Supplementary Materials. The estimated Peff, degree of flatness (1.7) and small intestinal radius (2 cm) were used for the calculation of kperm.

[2] = rDCS standard investigations: D/S ratio, SLAD and rDCS classification
Method: rDCS analysis was performed as described by Rosenberger et al.. […] The An can be calculated according to Equation (30):(30) An=DF·Peff/Rsi·Tsi
The rDCS classification according to the standard investigations was based on the D/S ratios, Peff and SLAD.

[3] = cited from earlier work
[4] = Shake-flask equilibrium solubility in FaSSIF V1; type: physicochemical; details: for solubility thermodynamic at 24 h: pH 6.5, thermodynamic from solid, FaSSIF V1, pH 6.50 ± 0.05, 37 °C, read-out: CS FaSSIF V1 (thermodynamic solubility)
Method: Equilibrium solubilities of the three APIs in FaSSIF V1 were measured with the shake-flask method, following the ICH M9 guideline on BCS-based biowaivers. Briefly, an excess amount of each API was weighed into a 5 mL vial and the assay medium (FaSSIF V1) was added. The resulting suspensions were incubated at 37.0 ± 0.5 °C (Memmert Incubator IN750, Memmert GmbH + Co. KG, Schwabach, Germany) and agitated for 24 h at 25 rpm (LABINCO LD76 Digital Rotary Mixer, Labinco BV, Breda, The Netherlands). At 2, 4, 6 and 24 h, samples were drawn and filtered through Acrodisc 13 mm with 0.45 µm PTFE filters (Pall Corporation, Port Washington, NY, USA) after establishing that adsorption of the APIs onto the filters was less than 5%. Before sampling, the suspensions were checked visually for the presence of solid particles and the pH was measured (Metrohm 780 pH Meter, Metrohm AG, Herisau, Switzerland). All measured pH values were within the specified range of pH 6.50 ± 0.05, so no pH adjustment was necessary. The filtrates were diluted with a 1:1 mixture of ACN and Milli-Q water for analysis using ultra-performance liquid chromatography with UV detection (UPLC-UV).
XRPD patterns of the residual solids were compared to the starting material and literature profiles. A differential scanning calorimetry (DSC) analysis of the input materials was additionally performed. Istradefylline samples were protected from light in all studies using amber vials and aluminum foil to prevent photolysis. The experimental details of the UPLC-UV methods and solid state analyses can be found in Supplementary Materials.
The solubility experiments were performed in triplicate (n = 3) and solubilities are presented as means (± SD). The mean values were used as input for the rDCS and rtarget calculations.
S.2.4. rDCS Standard Investigations: Solubility Studies
Samples from the solubility studies were analyzed with UPLC‐UV analysis. For voriconazole and lemborexant a Waters Acquity UPLC System consisting of a sample manager, a binary solvent manager, and a PDA detector was used (Waters Corporation, Milford, USA). For istradefylline a Waters Acquity UPLC H‐Class System consisting of a sample manager, a quarternary solvent manager, and a PDA detector was used (Waters Corporation, Milford, MA , USA). The chromatograms were recorded and processed using the software Empower® version 3.0. Representative chromatograms for each API are shown in […]
the FaSSIF V1 solubility study were collected and examined using X‐ray powder diffraction (XRPD) analysis to detect solution‐mediated solid state changes. After 24 h, 1 to 5 mg of the residual solid was collected, pl aced on a zero‐background holder and allowed to sit at room temperature for 2 h. […]

[5] = cited from earlier work; remark: listed apart in the source
[6] = from estimated Peff, DF 1.7, Rsi 2 cm
[7] = human mass-balance study, 10 mg [14C]lemborexant
[8] = healthy male subjects, oral suspension 40 mg [14C]istradefylline

| Structure (SMILES) | kdiss [1] | kperm [1, 6] | SLAD (solubility-limited absorbable dose) [2] | median tmax ([3]; healthy adults, single oral doses 1 to 10 mg) | dose recovered unchanged in feces [3, 7] | fraction of oral dose absorbed (Fa) [3, 7] | exposure versus dose ([3]; range 1 to 10 mg) | solubility thermodynamic at 24 h [4] | Literature pKa ([5]; estimated by capillary electrophoresis) | administered radioactivity recovered in feces [3, 8] | administered radioactivity recovered in urine [3, 8] | Literature pKa ([5]; basic pKa, method not disclosed) | kdiss for r = 100 µm ([1]; Excel template) | kperm ([1]; Excel template) | oral bioavailability ([3]; healthy volunteers, 200 mg or 400 mg oral) | exposure (AUC and Cmax) versus dose ([3]; high single oral doses of 800, 1200 and 1600 mg) | solubility at 24 h ([4]; pH 6.5, Excel template input, FaSSIF V1, read-out: Estimate of intestinal solubility (CS)) | Literature pKa ([5]; basic pKa, triazole moiety, method not disclosed) |
| --- | --- | --- | --- | --- | --- | --- | --- | --- | --- | --- | --- | --- | --- | --- | --- | --- | --- | --- |
| Cc1ncc(OC[C@@]2(c3cccc(F)c3)C[C@H]2C(=O)Nc2ccc(F)cn2)c(C)n1 [Lemborexant, lemborexant] | 3e-06 s⁻¹ | 0.0214 min⁻¹ | 49.6 mg | approximately 1 h | about 13% | 87% | increase in a dose-proportional manner | 23.3 ± 0.1 µg/mL (≈ 56.8 µM) | <3.50 [33] | – | – | – | – | – | – | – | – | – |
| CCn1c(=O)c2c(nc(/C=C/c3ccc(OC)c(OC)c3)n2C)n(CC)c1=O [Istradefylline, istradefylline] | 4.55e-07 s⁻¹ | 0.0238 min⁻¹ | 8.50 mg | – | – | – | – | 3.59 ± 0.05 µg/mL (≈ 9.34 µM) | – | 48.0 ± 13.4% | 38.9 ± 10.7% | 0.78 ^3 [31, 34] | – | – | – | – | – | – |
| C[C@@H](c1ncncc1F)[C@](O)(Cn1cncn1)c1ccc(F)cc1F [Voriconazole, voriconazole] | 0.000126 s⁻¹ | 0.0219 min⁻¹ | 1810 mg | – | – | – | – | 827 ± 6 µg/mL (≈ 2370 µM) | – | – | – | – | 0.000126 s⁻¹ | 0.02193 min⁻¹ | ≥ 85% | increased proportionally with dose | 827 µg/mL (≈ 2370 µM) | 1.76 ^3 [32] |
